Results: ChEMBL document CHEMBL4308876, “Isolation and structure determination of a new lasso peptide specialicin based on genome mining” (Bioorg Med Chem, 2018)
Converted amounts (≈) assume the structure as drawn. Bridge positions count the residues as written; N and C are the ends. Peptide text beside a SMILES is read from it.

Columns and labels:
Bacillus subtilis = experiment: Antibacterial activity against Bacillus subtilis after 24 hrs; assay type: functional
Micrococcus luteus = experiment: Antibacterial activity against Micrococcus luteus after 24 hrs; assay type: functional
Escherichia coli = experiment: Antibacterial activity against Escherichia coli after 24 hrs; assay type: functional
Staphylococcus aureus = experiment: Antibacterial activity against Staphylococcus aureus after 24 hrs; assay type: functional
Pseudomonas aeruginosa = experiment: Antibacterial activity against Pseudomonas aeruginosa after 24 hrs; assay type: functional
[1] = tested on: Human immunodeficiency virus 1; experiment: Antiviral activity against HIV-1 NL4-3 infected in human PM1/CCR5 cells after 7 days by WST-8 assay; assay type: functional, organism-based; settings: Human immunodeficiency virus 1, NL4-3, PM1/CCR5, 168 h

Row | SMILES | MIC (Bacillus subtilis) [µg/mL] | MIC (Micrococcus luteus) [µg/mL] | MIC (Escherichia coli) [µg/mL] | MIC (Staphylococcus aureus) [µg/mL] | MIC (Pseudomonas aeruginosa) [µg/mL] | IC50 [1] [µM]
1 | CN(C)[C@@H]1C(O)=C(C(N)=O)C(=O)[C@@]2(O)C(O)=C3C(=O)c4c(O)cccc4[C@@](C)(O)[C@H]3C[C@@H]12 [TETRACYCLINE] | 1 (≈ 2.25 µM) | 0.25 (≈ 0.563 µM) | 2 (≈ 4.5 µM) | 0.125 (≈ 0.281 µM) | 4 (≈ 9 µM) | –
2 | CC(C)C[C@@H]1NC(=O)[C@@H]2CSSC[C@@H]3NC(=O)CNC(=O)[C@H](C)NC(=O)[C@H](Cc4ccccc4)NC(=O)[C@H](CC(=O)N2)NC(=O)[C@H](C(C)C)NC(=O)[C@H](CSSC[C@@H](C(=O)N[C@@H](Cc2ccccc2)C(=O)N[C@@H](Cc2c[nH]c4ccccc24)C(=O)O)NC(=O)[C@H](C(C)C)NC(=O)[C@H](C(C)C)NC(=O)[C@H](C)NC(=O)[C@H](Cc2ccc(O)cc2)NC(=O)CNC3=O)NC(=O)[C@H](CO)NC(=O)CNC(=O)[C@H](C(C)C)NC(=O)CNC1=O (CLGVGSCVDFAGCGYAVVCFW-OH; disulfide 1-13, 7-19; lactam N-9) | > 32 | 8 (≈ 3.75 µM) | > 32 | > 32 | > 32 | 7.2
